From patent US10183950B2, “Thienopyrimidine inhibitors of atypical protein kinase C” (Cancer Research Technology Limited, priority 2011, dated 2019) come the findings set out here.

A value given as a limit tells only on which side of the number the result lay.

For one experiment, the target named is T1, full-length human PKCι (Homo sapiens, UniProt P41743).
T1 construct: Recombinant, full-length human PKCι expressed in Sf21 insect cells is also commercially available; purchased; host or cells: Sf21 insect cells
T1 sequence (P41743 1-596): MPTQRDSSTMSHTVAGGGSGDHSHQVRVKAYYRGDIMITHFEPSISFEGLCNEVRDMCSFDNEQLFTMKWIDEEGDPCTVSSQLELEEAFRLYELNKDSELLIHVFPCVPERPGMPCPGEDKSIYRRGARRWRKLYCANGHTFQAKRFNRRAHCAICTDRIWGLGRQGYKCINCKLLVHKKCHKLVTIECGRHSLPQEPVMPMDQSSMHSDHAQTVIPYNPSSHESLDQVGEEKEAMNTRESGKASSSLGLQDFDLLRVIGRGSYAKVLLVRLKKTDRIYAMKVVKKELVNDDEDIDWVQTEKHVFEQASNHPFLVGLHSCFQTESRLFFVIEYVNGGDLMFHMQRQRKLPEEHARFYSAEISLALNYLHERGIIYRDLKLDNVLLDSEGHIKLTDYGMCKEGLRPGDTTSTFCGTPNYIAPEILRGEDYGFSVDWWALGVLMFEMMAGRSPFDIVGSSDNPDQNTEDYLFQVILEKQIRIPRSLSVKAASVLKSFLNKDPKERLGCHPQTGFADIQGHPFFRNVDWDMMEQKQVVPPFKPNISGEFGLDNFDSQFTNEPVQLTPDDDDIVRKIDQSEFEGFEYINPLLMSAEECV
Nature of the experiment: PKCι IC50 IMAP fluorescence polarisation assay, full-length enzyme. The experiment is classed as biochemical. The following applies: full length PKCi at 15 μM ATP; read-out: IC50 in IMAP assay against full length PKCi.
The IC50 is the concentration that inhibits the measured activity by half. For the molecule `N[C@H](CNc1nc(-c2ccncc2)nc2c(-c3ccc(Br)cc3)csc12)Cc1ccccc1` [compound 326, (S)-N*1*-[7-(4-Bromo-phenyl)-2-pyridin-4-yl-thieno[3,2-d]pyrimidin-4-yl]-3-phenyl-propane-1,2-diamine], the IC50 was in the range of 1 to 10 µM.
In the case of `c1cc(-c2nc(N[C@@H]3CCCNC3)c3sccc3n2)ccn1` [compound 316, (R)-Piperidin-3-yl-(2-pyridin-4-yl-thieno[3,2-d]pyrimidin-4-yl)-amine], the IC50 was 1 to 10 µM.
For `N#Cc1ccc(Nc2cc(-c3nc(N[C@@H]4CCNC4)c4sccc4n3)ccn2)cc1` [compound 607, 4-{4-[4-((R)-Pyrrolidin-3-ylamino)-thieno[3,2-d]pyrimidin-2-yl]-pyridin-2-ylamino}-benzonitrile], the IC50 is 1 to 10 µM.
The same measure, in the same setting: for `CC(C)(C)c1sc2c(NC[C@@H](N)Cc3ccccc3)nc(-c3ccncc3)nc2c1-c1ccccc1` [compound 451, (S)-N*1*-(6-tert-Butyl-7-phenyl-2-pyridin-4-yl-thieno[3,2-d]pyrimidin-4-yl)-3-phenyl-propane-1,2-diamine] the value was 10 to 40 µM.
Take `Cc1cc(-c2csc3c(NC[C@@H](N)Cc4ccccc4)nc(-c4ccncc4)nc23)n[nH]1` [compound 569, (S)-N*1*-[7-(5-Methyl-1H-pyrazol-3-yl)-2-pyridin-4-yl-thieno[3,2-d]pyrimidin-4-yl]-3-phenyl-propane-1,2-diamine]: the IC50 is less than 0.1 µM.
The same measure, in the same setting: for `N[C@H](CNc1nc(-c2ccncc2F)nc2c(C#CC3(O)CCC3)csc12)Cc1ccccc1` [compound 507, 1-[4-((S)-2-Amino-3-phenyl-propylamino)-2-(3-fluoro-pyridin-4-yl)-thieno[3,2-d]pyrimidin-7-ylethynyl]-cyclobutanol] the value was 0.1 to 1 µM; for `CCc1cc(-c2csc3c(NC[C@@H](N)Cc4ccccc4)nc(-c4ccncc4)nc23)[nH]n1` [compound 571, (S)-N*1*-[7-(5-Ethyl-2H-pyrazol-3-yl)-2-pyridin-4-yl-thieno[3,2-d]pyrimidin-4-yl]-3-phenyl-propane-1,2-diamine], less than 0.1 µM; for `CNc1ccc(-c2c(C(C)(C)C)sc3c(NC[C@@H](N)Cc4ccccc4)nc(-c4ccncc4)nc23)cc1` [compound 448, (S)-N*1*-[6-tert-Butyl-7-(4-methylamino-phenyl)-2-pyridin-4-yl-thieno[3,2-d]pyrimidin-4-yl]-3-phenyl-propane-1,2-diamine], 1 to 10 µM.
For `N[C@H](CNc1nc(-c2ccncc2)nc2c(C#CCF)csc12)Cc1ccccc1` [compound 545, (S)-N*1*-[7-(3-Fluoro-prop-1-ynyl)-2-pyridin-4-yl-thieno[3,2-d]pyrimidin-4-yl]-3-phenyl-propane-1,2-diamine], the IC50 is less than 0.1 µM.
Still for that read-out and setting: for `Fc1cnccc1-c1nc(N[C@@H]2CCNC2)c2scc(Nc3ccon3)c2n1` [compound 497, 2-(3-Fluoro-pyridin-4-yl)-N*7*-isoxazol-3-yl-N*4*- (R)-pyrrolidin-3-yl-thieno[3,2-d]pyrimidine-4,7-diamine] the value was 10 to 40 µM; for `CCc1cc(-c2csc3c(NC[C@@H](N)Cc4ccccc4)nc(-c4ccncc4)nc23)no1` [compound 570, (S)-N*1*-[7-(5-Ethyl-isoxazol-3-yl)-2-pyridin-4-yl-thieno[3,2-d]pyrimidin-4-yl]-3-phenyl-propane-1,2-diamine], 1 to 10 µM; for `O=C(Nc1ccccc1)Nc1cc(-c2nc(N[C@@H]3CCNC3)c3sccc3n2)ccn1` [compound 575, 1-Phenyl-3-{4-[4-((R)-pyrrolidin-3-ylamino)-thieno[3,2-d]pyrimidin-2-yl]-pyridin-2-yl}-urea], 0.1 to 1 µM.
Regarding `N[C@@H]1CCN(c2nc(-c3ccncc3)nc3ccsc23)C1` [compound 318, (R)-1-(2-Pyridin-4-yl-thieno[3,2-d]pyrimidin-4-yl)-pyrrolidin-3-ylamine], the IC50 fell in the range of 10 to 40 µM.
The same measure, in the same setting: for `C[C@@H](F)C#Cc1csc2c(NC[C@@H](N)Cc3ccccc3)nc(-c3ccncc3)nc12` [compound 544, (S)—N*1*-[7-(3-Fluoro-but-1-ynyl)-2-pyridin-4-yl-thieno[3,2-d]pyrimidin-4-yl]-3-phenyl-propane-1,2-diamine] the value was less than 0.1 µM.
On to `Fc1cnccc1-c1nc(N[C@@H]2CCNC2)c2sccc2n1` [compound 354, [2-(3-Fluoro-pyridin-4-yl)-thieno[3,2-d]pyrimidin-4-yl]-(R)-pyrrolidin-3-yl-amine], for which the concentration for half-maximal inhibition (IC50) lay in the range of 10 to 40 µM.
As to `N[C@H](CNc1nc(-c2ccncc2)nc2c(-c3cc[nH]c3)csc12)Cc1ccccc1` [compound 398, (S)-3-Phenyl-N*1*-[2-pyridin-4-yl-7-(1H-pyrrol-3-yl)-thieno[3,2-d]pyrimidin-4-yl]-propane-1,2-diamine], the IC50 was 0.1 to 1 µM.
`N[C@H](CNc1nc(-c2ccncc2)nc2c(Cl)csc12)Cc1ccccc1` [compound 306, (S)—N*1*-(7-Chloro-2-pyridin-4-yl-thieno[3,2-d]pyrimidin-4-yl)-3-phenyl-propane-1,2-diamine]: the half-maximal inhibitory concentration (IC50) is less than 0.1 µM.
For `NCCNc1nc(-c2ccncc2)nc2c(-c3ccc(Br)cc3)csc12` [compound 310, N*1*-[7-(4-Bromo-phenyl)-2-pyridin-4-yl-thieno[3,2-d]pyrimidin-4-yl]-ethane-1,2-diamine], the IC50 is 1 to 10 µM.
Take `COc1ccccc1C[C@H](N)CNc1nc(-c2ccncc2)nc2c(Br)c(C(C)(C)C)sc12` [compound 303, (S)—N*1*-(7-bromo-6-tert-butyl-2-pyridin-4-yl-thieno[3,2-d]pyrimidin-4-yl)-3-(2-methoxy-phenyl)-propane-1,2-diamine]: the IC50 was 10 to 40 µM.
On to `CC(C)(C)c1cc2nc(-c3ccncc3)nc(NC[C@@H](N)Cc3ccccc3)c2s1` [compound 324, (S)-N*1*-(6-tert-Butyl-2-pyridin-4-yl-thieno[3,2-d]pyrimidin-4-yl)-3-phenyl-propane-1,2-diamine], for which the IC50 is 10 to 40 µM.
As for `CCC[C@H](O)C#Cc1csc2c(NC[C@@H](N)Cc3ccccc3)nc(-c3ccncc3)nc12` [compound 526, (S)-1-[4-((S)-2-Amino-3-phenyl-propylamino)-2-pyridin-4-yl-thieno[3,2-d]pyrimidin-7-yl]-hex-1-yn-3-ol], the IC50 lay within 0.1 to 1 µM.
Regarding `N[C@@H](CNc1nc(-c2ccncc2)nc2c(-c3ccn[nH]3)csc12)Cc1ccccc1` [compound 414, (R)-3-Phenyl-N*1*-[7-(1H-pyrazol-3-yl)-2-pyridin-4-yl-thieno[3,2-d]pyrimidin-4-yl]-propane-1,2-diamine], the concentration for half-maximal inhibition (IC50) lay within 0.1 to 1 µM.
Still for that read-out and setting: for `C=Cc1csc2c(NC[C@@H](N)Cc3ccccc3)nc(-c3ccncc3)nc12` [compound 408, (S)-3-Phenyl-N*1*-(2-pyridin-4-yl-7-vinyl-thieno[3,2-d]pyrimidin-4-yl)-propane-1,2-diamine] the value was less than 0.1 µM; for `Fc1c(-c2nc(N[C@@H]3CCNC3)c3sccc3n2)ccnc1Nc1cnccn1` [compound 585, {2-[3-Fluoro-2-(pyrazin-2-ylamino)-pyridin-4-yl]-thieno[3,2-d]pyrimidin-4-yl}-(R)-pyrrolidin-3-yl-amine], 1 to 10 µM; for `COc1ccc(C(F)(F)F)cc1-c1c(C)sc2c(NC[C@@H](N)Cc3ccccc3)nc(-c3ccncc3)nc12` [compound 464, (S)-N*1*-[7-(2-Methoxy-5-trifluoromethyl-phenyl)-6-methyl-2-pyridin-4-yl-thieno[3,2-d]pyrimidin-4-yl]-3-phenyl-propane-1,2-diamine], 10 to 40 µM.

Still in this experiment, the particulars now being: full length PKCi at 15 μM ATP; read-out: IC50 in IMAP assay against full length PKCi (Activity).
In the case of `NCCNc1nc(-c2ccncc2)nc2sc3c(c12)CCN(C(=O)C1CCC1)C3` [compound 109, [4-(2-Amino-ethylamino)-2-pyridin-4-yl-5,8-dihydro-6H-pyrido[4′,3′:4,5]thieno[2,3-d]pyrimidin-7-yl]-cyclobutyl-methanone], the 50% inhibitory concentration (IC50) was 10 to 40 µM.
`N[C@H](CNc1nc(-c2ccncc2)nc2sc3c(c12)CCCC3)Cc1cccnc1` [compound 57, (S)-3-Pyridin-3-yl-N*1*-(2-pyridin-4-yl-5,6,7,8-tetrahydro-benzo[4,5]thieno[2,3-d]pyrimidin-4-yl)-propane-1,2-diamine]: the IC50 is 0.1 to 1 µM.
Take `COc1cnccc1-c1nc(NC[C@@H](N)Cc2ccccc2)c2c3c(sc2n1)CCCC3` [compound 102, (S)—N*1*-[2-(3-methoxy-pyridin-4-yl)-5,6,7,8-tetrahydro-benzo[4,5]thieno[2,3-d]pyrimidin-4-yl]-3-phenyl-propane-1,2-diamine]: the concentration for half-maximal inhibition (IC50) fell in the range of 10 to 40 µM.
Turning to `CC1(C)CCc2c(sc3nc(-c4ccncc4)nc(NCCN)c23)C1` [compound 43, N*1*-(7,7-Dimethyl-2-pyridin-4-yl-5,6,7,8-tetrahydro-benzo[4,5]thieno[2,3-d]pyrimidin-4-yl)-ethane-1,2-diamine], the half-maximal inhibitory concentration (IC50) is 1 to 10 µM.
Take `CC(C)(C)C[C@H](N)CNc1nc(-c2ccncc2)nc2sc3c(c12)CCCC3` [compound 60, (S)-4,4-Dimethyl-N*1*-(2-pyridin-4-yl-5,6,7,8-tetrahydro-benzo[4,5]thieno[2,3-d]pyrimidin-4-yl)-pentane-1,2-diamine]: the IC50 is 1 to 10 µM.
